One data set has as its system CYP3A. Kind of data set: CYP induction (CYP3A activity in cryopreserved hepatocytes, P450-Glo CYP3A4 assay). Format: in vitro ADME. The settings on record: % of positive control; inducibility by 10 μmol/L rifampicin defined as 100%; hepatocytes treated 3 days. On the procedure:
Cryopreserved hepatocytes were thawed in a culture medium (In VitroGRO™ CP Medium, Celsis In Vitro Technologies, U.S.A.), and the resultant was added to BioCoat™ Matrigel®™ Matrix Thin-Layer 96 well (Becton, Dickinson and Company, U.S.A.) at a concentration of 40,000 cells/well. After culturing for 24 hours, the culture medium was removed, and replaced with an incubation medium (In VitroGRO™, HI Medium with Torpedo Antibiotic Mix, Celsis In Vitro Technologies, U.S.A.). Cells were cultured for an additional 3 days. The medium was removed on day 4, and the remained cells were treated in the induction medium containing a test compound for 3 days in the presence or absence of 10 μmol/L rifampicin. The induction medium was replaced every day. The test compound addition wells in the presence of 10 μmol/L rifampicin were used to evaluate the inhibitory effect of the test compound on the inducibility of the CYP3A activity by rifampicin. The CYP3A activity was evaluated by measuring luciferin generating amount after the addition of 2 μmol/L luciferin-IPA using IPA P450-Glo™ CYP3A4 assay systems (Promega Corporation, U.S.A.). All cultures were carried out under a humidified environment at 37° C., 5% CO2. The inducibility by rifampicin was defines as 100%, and the inducibility of the test compound (% of positive control) was calculated from the following equation: [(luciferin fluorescence intensity in the absence of rifampicin and the presence of test compound)−(luciferin fluorescence intensity in the absence of rifampicin and test compound)/(luciferin fluorescence intensity in the presence of rifampicin and the absence of test compound)−(Luciferin fluorescence intensity in the absence of rifampicin and test compound)]×100.

The target in the next data set is T1, CYP3A4 (Homo sapiens, UniProt P08684).
T1 construct: Human liver microsomes purchased from XenoTech, LLC (Lenexa, KS) was used; tissue XenoTech, LLC (Lenexa, KS); host or cells: human liver microsomes
T1 sequence (P08684 whole entry): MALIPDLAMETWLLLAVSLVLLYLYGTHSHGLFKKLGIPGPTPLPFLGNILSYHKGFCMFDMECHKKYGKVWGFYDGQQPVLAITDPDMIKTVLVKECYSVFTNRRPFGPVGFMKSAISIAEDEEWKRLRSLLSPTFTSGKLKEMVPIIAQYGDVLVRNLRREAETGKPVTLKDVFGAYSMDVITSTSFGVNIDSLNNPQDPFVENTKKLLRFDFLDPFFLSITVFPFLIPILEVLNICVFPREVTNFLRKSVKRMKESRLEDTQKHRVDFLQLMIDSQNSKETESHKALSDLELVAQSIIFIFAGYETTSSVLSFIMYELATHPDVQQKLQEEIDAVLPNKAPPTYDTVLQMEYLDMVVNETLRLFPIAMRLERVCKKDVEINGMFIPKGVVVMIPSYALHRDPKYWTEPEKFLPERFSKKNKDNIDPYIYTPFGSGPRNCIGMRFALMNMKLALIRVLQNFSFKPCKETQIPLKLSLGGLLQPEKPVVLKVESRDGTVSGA
Kind of data set: CYP3A4 TDI in human liver microsomes (testosterone 6β-hydroxylation). Format: in vitro ADME. To be noted: 30 μM test compound, 60 min vs 0 min preincubation, solvent DMSO/acetonitrile (1:4, v/v). On the procedure: Human liver microsomes purchased from XenoTech, LLC (Lenexa, KS) was used. Test compounds were dissolved in acetonitrile or DMSO/acetonitrile (1:4, v/v). To a human liver microsomes solution adjusted with phosphate buffer (pH 7.4), the test compound solution was added to obtain a human liver microsomes reaction solution having the test compound concentration of 30 μM. To the human liver microsome reaction solution, NADPH production system was added, and the mixture was preincubated at 37° C. for 0 minutes or 60 minutes. After the preincubation, probe substrate testosterone was added, and testosterone metabolite 6β-hydroxytestosterone was analyzed by LC/MS/MS to evaluate CYP3A4 enzymatic activity.
The enzyme activity (% of control) at each preincubation point was calculated from the following equation: % of control={(activity of test compound addition group)/(activity of test compound non-addition group)}×100.
The remaining activity (% remaining) after 60 minutes of preincubation was calculated from the following equation: Remaining activity (%)={activity after 60 minutes (% of control60 min)}/{activity after 0 minutes (% of control0 min)}×100.

In data set [1] the test system is CSQ-Tg mice. Kind of data set: Heart weight lowering effect in heart failure animal model. The settings on record: mean ± standard deviation; for Heart weight / Right ventricle weight: ** p < 0.025 Williams' test. It counts as in vivo. The procedure:
In this Test Example, the heart weight lowering effect of the compound of Example 1 (referred to herein as “Example 1”) was evaluated using CSQ-Tg mice as animal model for heart failure.
The Example 1 was suspended in 0.5% methylcellulose aqueous solution (hereinafter, in Test Examples, sometimes referred to as “vehicle”) (10 mL/kg). The obtained suspension was orally administered to 5-week old female CSQ-Tg mice developing heart failure at a dose of 30 mg/kg bodyweight/day (n=7) or 90 mg/kg bodyweight/day (n=9) once daily (QD) for 21 days. For a negative control (vehicle administration group), 0.5% methylcellulose aqueous solution (n=7) was administered. Then, weights of the hearts were measured. The measurement of the weights was carried out by fractionating each of the hearts into four: left ventricle, right ventricle, left atrium, and right atrium. The sum of the weights of the four fractions was defined as the heart weight.

Data set [2] concerns CSQ-Tg mice. Kind of data set: Effect on survival rate of heart failure animal model. The settings on record: oral QD 68 days, control: candesartan cilexetil mono-administration. It counts as in vivo. On the procedure:
FIG. 1 is a graph showing a result of Test Example 5 “Effect of Compound of Example 1 on Survival Rate of Heart Failure Animal Model”, that is, survival rates of each of the mono-administration group of candesartan cilexetil, the co-administration group of candesartan cilexetil and the compound of Example 1 at 10 mg/kg bodyweight/day, and the co-administration group of candesartan cilexetil and the compound of Example 1 at 30 mg/kg bodyweight/day (log-rank test, the co-administration group of candesartan cilexetil and the compound of Example 1 at 10 mg/kg bodyweight/day (p<0.05), the co-administration group of candesartan cilexetil and the compound of Example 1 at 30 mg/kg bodyweight/day (p<0.01)).
In this Test Example, effect of Example 1 on survival rate was examined using heart failure animal models. The mice reported in Larry R. Jones et al., J. Clin. Invest. 101: 1385-1393, 1998 were obtained from the University of Pennsylvania and bred in-house, which were cardiac-specific transgenic mice of Calsequestrin (CSQ) (CSQ-Tg mice) as the heart failure animal models. In the study, female mice were used, and dosing was started from the age of 5 weeks. The animals were fed with chow (CE-2, CLEA Japan, Inc.) and tap water under the condition of room temperature of 20 to 26° C., humidity of 40 to 70%, and lighting time of 12 hours/day (7:00 to 19:00). […]

The mark [3] stands for this setting: 30 mg/kg bodyweight/day oral QD 21 days.
Where [4] appears, read: 90 mg/kg bodyweight/day oral QD 21 days.

The compound `CCc1ccc([C@@](CC)(NC(=O)c2c(C)nn3c2N[C@@H](c2ccccc2)CC3(C)C)C(=O)N[C@@H](C)C(N)=O)cc1` [Example 1, (5R)-N-((2R)-1-(((2S)-1-Amino-1-oxopropan-2-yl)amino)-2-(4-ethylphenyl)-1-oxobutan-2-yl)-2,7,7-trimethyl-5-phenyl-4,5,6,7-tetrahydropyrazolo[1,5-a]pyrimidine-3-carboxamide] came in with an Inducibility with CYP3A of 15.3%. Besides, the “Remaining Activity” value at CYP3A4 was 96.2%. In addition, in the data set with CSQ-Tg mice [1] (setting [3]), the Left atrium weight came out at 8.1 ± 3.8 mg, the Left ventricle weight turned out to be 147.4 ± 12.0 mg, the Right atrium weight was 5.5 ± 2.6 mg and the Heart weight is recorded as 202.8 ± 14.1** mg. Also, the Right ventricle weight with CSQ-Tg mice [1] (setting [3]) is given as 41.8 ± 6.0** mg. In the data set with CSQ-Tg mice [1] (setting [4]), the Left atrium weight is reported as 9.1 ± 5.1 mg, the Left ventricle weight came to 147.0 ± 8.6 mg, the Right atrium weight amounted to 5.1 ± 2.2 mg and the Heart weight was 202.5 ± 19.1** mg. Besides, the Right ventricle weight in the data set with CSQ-Tg mice [1] (setting [4]) is 41.3 ± 7.6** mg. For the same compound, the “Survival rate, log-rank test p” value in the data set on CSQ-Tg mice [2] (10 mg/kg bodyweight/day co-administered with candesartan cilexetil (1 mg/kg bodyweight/day)) was below 0.05. Further, the “Survival rate, log-rank test p” value with CSQ-Tg mice [2] (30 mg/kg bodyweight/day co-administered with candesartan cilexetil (1 mg/kg bodyweight/day)) is on record as below 0.01.

Source of the values: patent US12202832B2, “Heterocyclic compounds having a calcium-sensing receptor antagonistic activity” (TAKEDA PHARMACEUTICAL COMPANY LIMITED, priority 2017, dated 2025).
